Test results taken from PMC12064818, “A general assay platform to study protein pharmacology using ligand-dependent structural dynamics” (Nature Communications, 2025).
Several values for one entry are separate records, joined by “and”; a condition that tells them apart may be missing. Equal entries are not always repeated.

Molecular target: T1, T7 Lig-C-HiBiT (DNA ligase) (Escherichia phage T7, UniProt P00969)
T1 sequence (P00969 2-359): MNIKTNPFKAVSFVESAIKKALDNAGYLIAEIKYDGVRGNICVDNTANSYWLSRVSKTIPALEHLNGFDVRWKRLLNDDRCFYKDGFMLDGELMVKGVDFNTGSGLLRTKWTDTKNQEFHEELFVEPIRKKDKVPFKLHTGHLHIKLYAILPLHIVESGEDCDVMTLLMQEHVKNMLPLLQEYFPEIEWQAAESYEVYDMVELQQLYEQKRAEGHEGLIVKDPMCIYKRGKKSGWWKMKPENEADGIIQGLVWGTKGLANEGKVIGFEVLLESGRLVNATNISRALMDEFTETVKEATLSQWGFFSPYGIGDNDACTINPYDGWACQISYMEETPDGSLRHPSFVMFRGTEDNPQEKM
Assay: SDR assay (aqueous ligand dispense), T7 Lig-C-HiBiT
Conditions: for SDR assay data: 1 nM T7 Lig-C-HiBiT; for SDR assay data / SDR response: Log [ATP]; for SDR response: replicates

[1] = T7 Lig-C-HiBiT (1 nM), ligand 100 µM

## Nc1ncnc2c1ncn2[C@@H]1O[C@H](COP(=O)(O)OP(=O)(O)OP(=O)(O)O)[C@@H](O)[C@H]1O [ATP]
  EC50: ≥ 100 µM
M -2.85
  SDR assay data: 216.5 and 209.6 and 219.5
  SDR response: 216.5 and 209.6 and 219.5
M -3.15
  SDR assay data: 141.4 and 163.1 and 159.6
  SDR response: 141.4 and 163.1 and 159.6
M -3.45
  SDR assay data: 83.0 and 105.1 and 112.1
  SDR response: 83.0 and 105.1 and 112.1
M -3.75
  SDR assay data: 54.1 and 71.7 and 73.7
  SDR response: 54.1 and 71.7 and 73.7
M -4.35
  SDR assay data: 22.4 and 27.8 and 30.1
  SDR response: 22.4 and 27.8 and 30.1
M -4.65
  SDR assay data: 18.5 and 22.1 and 22.3
  SDR response: 18.5 and 22.1 and 22.3
M -4.95
  SDR assay data: 14.4 and 13.8
  SDR response: 14.4 and 13.8
M -5.25
  SDR assay data: 9.3 and 8.9
  SDR response: 9.3 and 8.9
M -5.55
  SDR assay data: 9.2 and 6.3
  SDR response: 9.2 and 6.3
M -6.16
  SDR assay data: 7.3 and 4.5
  SDR response: 7.3 and 4.5
M -6.46
  SDR assay data: 6.2 and 3.9 and 5.5
  SDR response: 6.2 and 3.9 and 5.5
M -4.05
  SDR response: 18.5 and 46.9 and 44.7
M -5.86
  SDR response: 6.9 and 3.3 and 6.8
M -6.76
  SDR response: 4.6 and 1.8 and 4.9
T7 Lig-C-HiBiT
  SDR assay response (in words): strong SDR signal
[1]
  SDR assay statistics Ave RLU: 70.8 RLU
  SDR assay statistics S:B: 1.4
  SDR assay statistics Z’: -0.186
T7 Lig-C-HiBiT, maximum response
  max resp: 215.2
